Experiments:
[1] = target: T1, human recombinant adrenergic α1D receptor (Homo sapiens, UniProt P25100); test: Adrenergic α1D radioligand binding assay ([3H]Prozosin); details: compound at 1 μM; 0.6 nM [3H]Prozosin; HEK-293 cells; read-out: Percent Inhibition of ligand binding, Adrenergic (1 μM) a1D
T1 construct: expressed in transfected cells; host or cells: human embryonic kidney (HEK-293) cells
T1 sequence (P25100 1-572): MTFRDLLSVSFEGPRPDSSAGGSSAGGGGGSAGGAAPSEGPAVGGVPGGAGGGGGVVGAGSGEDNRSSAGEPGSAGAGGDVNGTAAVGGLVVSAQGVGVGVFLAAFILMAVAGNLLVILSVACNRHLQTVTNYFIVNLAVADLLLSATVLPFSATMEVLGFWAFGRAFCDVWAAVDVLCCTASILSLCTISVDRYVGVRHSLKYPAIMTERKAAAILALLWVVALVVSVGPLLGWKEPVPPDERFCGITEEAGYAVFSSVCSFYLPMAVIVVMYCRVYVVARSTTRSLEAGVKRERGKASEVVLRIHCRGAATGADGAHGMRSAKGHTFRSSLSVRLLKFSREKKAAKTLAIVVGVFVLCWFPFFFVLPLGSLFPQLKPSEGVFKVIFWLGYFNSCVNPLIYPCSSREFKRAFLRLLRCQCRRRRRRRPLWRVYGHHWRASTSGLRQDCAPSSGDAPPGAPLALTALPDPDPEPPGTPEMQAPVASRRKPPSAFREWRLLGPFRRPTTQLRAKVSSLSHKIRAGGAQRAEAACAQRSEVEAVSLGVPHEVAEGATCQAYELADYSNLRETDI
Experimental: Compounds of invention were incubated with 0.6 nM [^3H]Prozosin for 60 min at 25° C. Non-specific binding was estimated in the presence of 10 μM phentolamine Receptor proteins were filtered and washed, the filters were then counted to determine [^3H]Prozosin specifically bound.

[2] = target: T2, human recombinant serotonin (5-Hydroxytryptamine) 5-HT2C receptor (Homo sapiens, UniProt P28335); test: Serotonin 5-HT2C radioligand binding assay ([3H]Mesulergine); details: compound at 1 μM; 1 nM [3H]Mesulergine; CHO-K1 cells
T2 construct: expressed in transfected cells; host or cells: Chinese hamster ovary (CHO-K1) cells
T2 sequence (P28335 33-458): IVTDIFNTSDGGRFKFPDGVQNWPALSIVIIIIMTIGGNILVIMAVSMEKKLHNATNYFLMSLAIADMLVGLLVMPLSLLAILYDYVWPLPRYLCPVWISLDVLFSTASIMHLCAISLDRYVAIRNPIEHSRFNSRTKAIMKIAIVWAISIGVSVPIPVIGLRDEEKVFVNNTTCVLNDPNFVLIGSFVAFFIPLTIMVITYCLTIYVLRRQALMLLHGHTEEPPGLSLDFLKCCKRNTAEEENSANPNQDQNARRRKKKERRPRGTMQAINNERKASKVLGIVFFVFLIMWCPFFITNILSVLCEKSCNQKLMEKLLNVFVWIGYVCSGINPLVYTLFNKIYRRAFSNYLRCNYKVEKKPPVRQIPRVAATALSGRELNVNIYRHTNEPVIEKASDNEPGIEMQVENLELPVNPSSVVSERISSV
Experimental: (§1) Compounds of the invention were incubated with 1 nM [^3H]Mesulergine for 60 min at 25° C. Non-specific binding was estimated in the presence of 1 μM Mianserin. Receptor proteins were filtered and washed, the filters were then counted to determine [^3H]Mesulergine specifically bound. Compounds were screened at 1 μM or lower, using 1% DMSO as vehicle. Biochemical assay results are presented as the percent inhibition of specific binding in Table 4.

[3] = target: T3, human recombinant serotonin (5-Hydroxytryptamine) 5-HT6 receptor (Homo sapiens, UniProt P50406); test: Serotonin 5-HT6 radioligand binding assay ([3H]LSD); details: compound at 1 μM, HeLa cells
T3 construct: expressed in transfected cells; host or cells: human HeLa cells
T3 sequence (P50406 whole entry): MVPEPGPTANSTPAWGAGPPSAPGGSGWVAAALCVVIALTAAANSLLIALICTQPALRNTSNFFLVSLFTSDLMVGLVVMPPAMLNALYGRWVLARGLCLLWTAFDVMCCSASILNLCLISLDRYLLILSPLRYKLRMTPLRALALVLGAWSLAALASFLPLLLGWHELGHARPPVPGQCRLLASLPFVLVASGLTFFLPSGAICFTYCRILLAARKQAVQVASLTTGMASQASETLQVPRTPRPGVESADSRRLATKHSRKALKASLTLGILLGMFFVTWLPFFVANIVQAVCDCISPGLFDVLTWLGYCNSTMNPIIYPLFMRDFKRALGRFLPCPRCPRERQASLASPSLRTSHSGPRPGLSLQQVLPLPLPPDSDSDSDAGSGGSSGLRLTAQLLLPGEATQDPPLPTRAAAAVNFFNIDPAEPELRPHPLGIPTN
Experimental: (§2) Compounds of the invention were incubated with 1.5 nM [3H]Lysergic acid diethylamide (LSD) for 120 min at 37° C. […] Receptor proteins were filtered and washed, the filters were then counted to determine [3H]LSD specifically bound. Compounds were screened at 1 μM or lower, using 1% DMSO as vehicle. Biochemical assay results are presented as the percent inhibition of specific binding in Table 4.

[4] = target: human recombinant serotonin (5-Hydroxytryptamine) 5-HT7 receptor (Homo sapiens, UniProt P34969); test: Serotonin 5-HT7 radioligand binding assay ([3H]LSD); details: compound at 1 μM; 5.5 nM [3H]LSD; CHO cells
human recombinant serotonin (5-Hydroxytryptamine) 5-HT7 receptor, sequence (P34969 whole entry): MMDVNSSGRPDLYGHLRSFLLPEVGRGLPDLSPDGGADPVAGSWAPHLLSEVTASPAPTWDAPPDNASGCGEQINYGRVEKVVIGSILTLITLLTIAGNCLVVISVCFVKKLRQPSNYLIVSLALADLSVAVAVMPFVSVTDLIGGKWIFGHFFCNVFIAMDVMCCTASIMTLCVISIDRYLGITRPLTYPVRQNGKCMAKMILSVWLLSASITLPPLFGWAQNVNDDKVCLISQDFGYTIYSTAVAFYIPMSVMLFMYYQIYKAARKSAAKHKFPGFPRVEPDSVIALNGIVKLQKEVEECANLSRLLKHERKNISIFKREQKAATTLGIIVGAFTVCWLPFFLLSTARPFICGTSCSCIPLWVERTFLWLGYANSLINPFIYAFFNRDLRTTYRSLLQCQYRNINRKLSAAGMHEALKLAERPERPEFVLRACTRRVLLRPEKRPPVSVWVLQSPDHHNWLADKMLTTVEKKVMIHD
Experimental: as §2, with “of” for “of the”, “5.5” for “1.5”, “[^3H] Lysergic” for “[3H]Lysergic”, “2 h” for “120 min”, “25°” for “37°”, “[^3H]LSD” for “[3H]LSD”

[5] = target: T4, human recombinant serotonin (5-Hydroxytryptamine) 5-HT2A receptor (Homo sapiens, UniProt P28223); test: Serotonin 5-HT2A radioligand binding assay ([3H]Ketanserin); details: 0.5 nM [3H]Ketanserin, CHO-K1 cells; for inhibition at 1 µM: read-out: Percent Inhibition of ligand binding, Serotonin (1 μM) 5-HT2A
T4 construct: expressed in transfected cells; host or cells: Chinese hamster ovary (CHO-K1) cells
T4 sequence (P28223 whole entry): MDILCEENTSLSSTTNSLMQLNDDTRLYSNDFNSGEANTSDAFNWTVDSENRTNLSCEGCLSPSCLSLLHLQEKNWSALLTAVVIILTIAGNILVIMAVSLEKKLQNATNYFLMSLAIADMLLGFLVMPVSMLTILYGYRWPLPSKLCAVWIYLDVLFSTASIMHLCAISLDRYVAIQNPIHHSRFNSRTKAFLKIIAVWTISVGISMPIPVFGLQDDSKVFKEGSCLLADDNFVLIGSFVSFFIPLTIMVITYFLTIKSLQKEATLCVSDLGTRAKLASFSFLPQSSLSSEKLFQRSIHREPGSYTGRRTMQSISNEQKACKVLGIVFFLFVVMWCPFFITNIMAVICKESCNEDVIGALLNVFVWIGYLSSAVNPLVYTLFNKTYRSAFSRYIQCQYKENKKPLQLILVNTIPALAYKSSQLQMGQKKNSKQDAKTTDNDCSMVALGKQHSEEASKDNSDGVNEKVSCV
Experimental: as §1, with “with 0.5” for “with 1”, “nM [^3H]Ketanserin” for “nM [^3H]Mesulergine”, “determine [^3H]Ketanserin” for “determine [^3H]Mesulergine”

[6] = target: human recombinant histamine H1 receptor (Homo sapiens, UniProt P35367); test: Histamine H1 radioligand binding assay ([3H]Pyrilamine); details: compound at 1 μM, receptor expressed in CHO cells
human recombinant histamine H1 receptor, sequence (P35367 whole entry): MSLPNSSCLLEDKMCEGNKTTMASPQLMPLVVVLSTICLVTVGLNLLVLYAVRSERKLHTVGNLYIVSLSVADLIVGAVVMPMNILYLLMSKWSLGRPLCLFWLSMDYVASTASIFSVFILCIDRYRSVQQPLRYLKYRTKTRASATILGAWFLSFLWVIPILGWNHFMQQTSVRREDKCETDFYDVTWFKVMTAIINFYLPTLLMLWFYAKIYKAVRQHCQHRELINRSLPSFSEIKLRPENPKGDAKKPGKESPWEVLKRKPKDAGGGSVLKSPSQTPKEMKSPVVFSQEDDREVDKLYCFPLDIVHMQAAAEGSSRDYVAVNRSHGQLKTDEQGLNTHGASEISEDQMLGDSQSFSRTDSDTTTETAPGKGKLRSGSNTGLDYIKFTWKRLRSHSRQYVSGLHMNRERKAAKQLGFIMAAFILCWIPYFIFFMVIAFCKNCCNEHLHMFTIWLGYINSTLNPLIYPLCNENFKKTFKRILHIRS
Experimental: To evaluate in radioligand binding assays the activity of compounds of the invention, human recombinant histamine H1 receptor expressed in Chinese hamster ovary (CHO) cells (De Backer, M. D. et al., Biochem. Biophys. Res. Comm. 197(3):1601, 1993) in a modified Tris-HCl buffer (50 mM Tris-HCl, pH 7.4, 2 mM MgCl2, 100 mM NaCl, 250 mM Sucrose) was used. Compounds of the invention were incubated with 1.2 nM [^3H]Pyrilamine for 180 min at 25° C. Non-specific binding was estimated in the presence of 1 μM pyrilamine Receptor proteins were filtered and washed, the filters were then counted to determine [^3H]Pyrilamine specifically bound. Compounds were screened at 1 μM or lower, using 1% DMSO as vehicle. Biochemical assay results are presented as the percent inhibition of specific binding in Table 2.

[7] = target: T5, human recombinant adrenergic α2C receptor (Homo sapiens, UniProt P18825); test: Adrenergic α2C radioligand binding assay ([3H]MK-912); details: compound at 0.1 μM; 1 nM [3H]MK-912; insect Sf9 cells; read-out: Percent Inhibition of ligand binding, Adrenergic (0.1 μM) a2C
T5 construct: expressed in transfected cells; host or cells: insect Sf9 cells
T5 sequence (P18825 1-462): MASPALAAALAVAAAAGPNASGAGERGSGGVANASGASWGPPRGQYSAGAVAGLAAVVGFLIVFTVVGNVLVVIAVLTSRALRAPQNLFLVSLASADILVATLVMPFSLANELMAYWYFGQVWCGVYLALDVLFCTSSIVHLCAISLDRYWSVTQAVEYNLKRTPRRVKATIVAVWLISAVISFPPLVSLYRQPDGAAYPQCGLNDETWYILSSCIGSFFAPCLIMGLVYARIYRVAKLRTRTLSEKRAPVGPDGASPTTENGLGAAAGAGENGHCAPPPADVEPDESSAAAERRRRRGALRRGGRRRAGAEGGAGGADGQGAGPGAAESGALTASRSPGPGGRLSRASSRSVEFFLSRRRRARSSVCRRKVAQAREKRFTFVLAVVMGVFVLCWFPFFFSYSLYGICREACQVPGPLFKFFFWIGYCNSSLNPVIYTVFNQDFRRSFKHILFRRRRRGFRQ
Experimental: To evaluate in radioligand binding assays the activity of compounds of the invention, human recombinant adrenergic α2C receptor expressed in insect Sf9 cells (Uhlen S et al. J. Pharmacol. Exp. Ther. 271:1558, 1994) in a modified Tris-HCl buffer (50 mM Tris-HCl, pH 7.4, 12.5 mM MgCl2, 2 mM EDTA) is used. Compounds of the invention are incubated with 1 nM [^3H]MK-912 for 60 min at 25° C. Non-specific binding is estimated in the presence of 10 μM WB-4101. Receptor proteins are filtered and washed, the filters are then counted to determine [^3H]MK-912 specifically bound. Compounds are screened at 1 μM or lower, using 1% DMSO as vehicle. Compounds of the invention are tested in this biochemical assay and percent inhibition of specific binding is determined.

[8] = target: T6, rat adrenergic α1A receptor (Rattus norvegicus, UniProt P43140); test: Adrenergic α1A radioligand binding assay ([3H]Prozosin); details: compound at 0.1 μM; 0.25 nM [3H]Prozosin; Wistar Rat submaxillary glands; read-out: Percent Inhibition of ligand binding, Adrenergic (0.1 μM) a1A
T6 construct: from tissue; host or cells: Wistar Rat submaxillary glands
T6 sequence (P43140 1-466): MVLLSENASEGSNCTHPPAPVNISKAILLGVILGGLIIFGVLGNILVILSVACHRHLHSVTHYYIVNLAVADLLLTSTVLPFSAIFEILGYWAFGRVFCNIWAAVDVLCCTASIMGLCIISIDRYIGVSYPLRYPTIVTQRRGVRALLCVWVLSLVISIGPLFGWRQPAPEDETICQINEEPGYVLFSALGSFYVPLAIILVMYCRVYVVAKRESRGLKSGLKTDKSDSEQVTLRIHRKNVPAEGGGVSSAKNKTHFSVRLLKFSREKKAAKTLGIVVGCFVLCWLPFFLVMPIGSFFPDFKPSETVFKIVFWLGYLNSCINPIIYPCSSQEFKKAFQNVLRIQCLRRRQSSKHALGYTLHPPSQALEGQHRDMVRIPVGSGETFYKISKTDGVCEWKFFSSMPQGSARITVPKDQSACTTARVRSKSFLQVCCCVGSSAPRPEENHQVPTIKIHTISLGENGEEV
Experimental: To evaluate in radioligand binding assays the activity of compounds of the invention, rat adrenergic α1A receptor obtained from Wistar Rat submaxillary glands (Michel, A. D. et al., Br. J. Pharmacol. 98:883, 1989) in a modified Tris-HCl buffer (50 mM Tris-HCl buffer, pH 7.4, 0.5 mM EDTA) is used. Compounds of the invention are incubated with 0.25 nM [^3H]Prozosin for 60 min at 25° C. Non-specific binding is estimated in the presence of 10 μM phentolamine. Receptor proteins are filtered and washed, the filters are then counted to determine [^3H]Prozosin specifically bound. Compounds of the invention are screened at 1 μM or lower, using 1% DMSO as vehicle. Compounds of the invention are tested in this biochemical assay and percent inhibition of specific binding is determined.

SMILES	inhibition at 1 µM [1] [%]	Percent Inhibition of ligand binding, Serotonin (1 μM) 5-HT2C [2] [%]	Percent Inhibition of ligand binding, Serotonin (1 μM) 5-HT6 [3] [%]	Percent Inhibition of ligand binding, Serotonin (1 μM) 5-HT7 [4] [%]	Percent Inhibition of ligand binding, Serotonin (1 μM) 5-HT2A ([5]; compound at 1 μM) [%]	inhibition at 1 µM ([5]; compound at 1 μM) [%]	Binding Data (% Inhibition) Histamine Binding (1μM) H1 [6] [%]	inhibition at 0.1 µM [7] [%]	inhibition at 0.1 µM [8] [%]	inhibition at 0.1 µM ([5]; compound at 0.1 μM, read-out: Percent Inhibition of ligand binding, Serotonin (0.1 μM) 5-HT2A) [%]
COc1ccc(C(C)(O)Cn2c3c(c4cc(C)ccc42)CN(C)CC3)cc1 (stereo not shown) [Compound 1-4, 1-(2,8-dimethyl-3,4-dihydro-1H-pyrido[4,3-b]indol-5(2H)-yl)-2-(4-methoxyphenyl)propan-2-ol]	57	98	87	98	100	97	43	–	–	–
CN1CCc2c(c3cccc(Cl)c3n2CC(C)(O)c2ccncc2)C1 (stereo not shown) [Compound 1-10, 1-(6-chloro-2-methyl-3,4-dihydro-1H-pyrido[4,3-b]indol-5(2H)-yl)-2-(pyridin-4-yl)propan-2-ol]	–	–	–	–	–	91	–	19	-8	–
COc1ccc([C@@](C)(O)Cn2c3c(c4cc(C)ccc42)CN(C)CC3)cc1 [Compound 1-19, (R)-1-(2,8-Dimethyl-3,4-dihydro-1H-pyrido[4,3-b]indol-5(2H)-yl)-2-(4-methoxyphenyl)propan-2-ol]	–	–	–	–	–	–	–	16	20	98

From patent US9255094B2, “Pyrido[4,3-B]indoles and methods of use” (Medivation Technologies, Inc., priority 2009, dated 2016)
